Experimental data taken from US10080365B2, “Use of strobilurin type compounds for combating phytopathogenic fungi resistant to Qo inhibitors” (BASF SE, priority 2011, dated 2018).

How the values were obtained:
[1] = system: Septoria tritici (Qo-inhibitor sensitive, wild-type); test: Microtiter test, Septoria tritici Qo-inhibitor sensitive wild-type (Use Example 1); format: cell-based; settings: turbidity at 620 nm, read-out: Sensitive Septoria tritici isolate (wild type) (S-IC50)
Protocol: (§1) The active substances were formulated separately as a stock solution in dimethyl sulfoxide (DMSO) at a concentration of 10 000 ppm.
(§2) Activity against the Septoria blotch pathogen caused by Septoria tritici in the microtiter test
(§3) Fungal strains used: • a) Septoria tritici (Qo-inhibitor sensitive, wild-type) • b) Septoria tritici (Qo-inhibitor-resistant, G143A mutant)
(§4) 100 ml 2% Malt extract in water at pH6.8 were inoculated with microspores from 2 week old cultures grown on 2% malt extract+2% agar in Petri dishes and incubated for 3 days on a rotary shaker at 24° C. und 150 rpm. The culture was harvested, glycerol was added (15% (v/v) and kept frozen at −20° C. in aliquots of 1 ml.
(§5) 1 ml stock suspension was thawed and suspended into 800 ml of 2% malt extract in water at pH 6.8. Compounds were diluted from stock solution in (dimethylsulfoxide) DMSO in 10 steps. The compound solutions were diluted 1/5 with sterile deionized water before use. 5 μl of the compound solutions were transferred into empty microplates. The plates were then filled with 195 μl of the microspore suspension of each strain.
(§6) The antifungal activity was determined by measuring the turbidity of a culture in 96-well microplates in the presence of test compounds. Fungal growth was measured by recording the optical density at 620 nm every 15 h for 150 h. The relative antifungal activity was calculated by comparison of the effect of the test compounds with the effect of a DMSO control and a standard fungicide.
(§7) IC50-values (concentration of test compound resulting in 50% inhibition of fungal growth) were calculated from the resulting dose-response for each compound and strain. The initial concentration of the test compounds and the 10 steps of dilution (1:4 each) allowed IC50-values from 0.001 to 100 μmol/l (μM) to be assessed.

[2] = system: Septoria tritici (Qo-inhibitor-resistant, G143A mutant); test: Microtiter test, Septoria tritici Qo-inhibitor-resistant G143A mutant (Use Example 1); format: cell-based; settings: for IC50: microtiter test, Qo-inhibitor-resistant G143A mutant, turbidity at 620 nm, read-out: Resistant Septoria tritici isolate (G143A mutation) (R-IC50); for Resistance factor RF = R-IC50/S-IC50: ratio of IC50 for G143A resistant isolate to IC50 for wild-type sensitive isolate
Protocol: as §1, §2, §3, §4, §5, §6, §7

| SMILES | IC50 [1] [µM] | IC50 [2] [µM] | Resistance factor RF = R-IC50/S-IC50 [2] |
| --- | --- | --- | --- |
| CO/C=C(/C(=O)OC)c1ccccc1Oc1cc(Oc2ccccc2C#N)ncn1 [Azoxystrobin, reference compound] | 3.5 | > 100 | – |
| CON=C(C(=O)OC)C(C)=CCOc1ccn(-c2ccc(Cl)cc2)n1 [Compound I-5] | 0.083 | 2.2 | 26 |
| C=CCON=C(C)c1cc(C)c(OCC=C(C)C(=NOC)C(=O)NC)cc1C [Compound I-82] | 1.1 | 6.8 | 6 |
| C=CCON=C(C)c1ccc(OCC=C(C)C(=NOC)C(=O)NC)c(C)c1 [Compound I-83] | 1.6 | 7.6 | 4.6 |
| C=C(Cl)CON=C(C)c1cc(C)c(OCC=C(C)C(=NOC)C(=O)NC)cc1C [Compound I-84] | 0.5 | 16.1 | 33 |
| C=C(Cl)CON=C(C)c1ccc(OCC=C(C)C(=NOC)C(=O)NC)c(C)c1 [Compound I-85] | 0.8 | 22 | 29 |
| CC=CCON=C(C)c1cc(C)c(OCC=C(C)C(=NOC)C(=O)NC)cc1C [Compound I-90] | 1 | 26 | 26 |
| CC=CCON=C(C)c1ccc(OCC=C(C)C(=NOC)C(=O)NC)c(C)c1 [Compound I-91] | 1.6 | 27 | 17 |
| C=CCON=C(C)c1cc(C)c(OCC=C(C)C(=NOC)C(=O)OC)cc1C [Compound I-94] | 0.6 | 12 | 22 |
| C=CCON=C(C)c1ccc(OCC=C(C)C(=NOC)C(=O)OC)c(C)c1 [Compound I-95] | 2.2 | 29 | 14 |
| C=C(Cl)CON=C(C)c1ccc(OCC=C(C)C(=NOC)C(=O)OC)c(C)c1 [Compound I-97] | 1.7 | 49 | 29 |
| CCON=C(C)c1ccc(OCC=C(C)C(=NOC)C(=O)OC)c(C)c1 [Compound I-191] | 1.3 | 37 | 29 |
| Cc1cc(-n2cccn2)ccc1OCc1ccccc1-n1nnn(C)c1=O [Compound I-212] | 1.4 | 8.3 | 6 |
| CC(=NOCc1ccccc1-n1nnn(C)c1=O)c1cccc(-c2cnn(-c3ccccc3)c2)c1 [Compound I-213] | 0.076 | 0.057 | 0.7 |
| C/C(=N\OC/C=C/Cl)c1ccc(OCc2ccccc2-n2nnn(C)c2=O)c(C)c1 [Compound I-217] | 6.3 | 63 | 10 |
| C=CCO/N=C(\C)c1ccc(OCc2ccccc2-n2nnn(C)c2=O)c(C)c1 [Compound I-218] | 5.6 | 79 | 14 |
| C#CCO/N=C(\C)c1ccc(OCc2ccccc2-n2nnn(C)c2=O)c(C)c1 [Compound I-221] | 3.4 | 10 | 3 |
| C/C(=N\OC/C=C/Cl)c1cc(C)c(OCc2ccccc2-n2nnn(C)c2=O)cc1C [Compound I-223] | 2.7 | 19 | 7 |
| C=CCO/N=C(\C)c1cc(C)c(OCc2ccccc2-n2nnn(C)c2=O)cc1C [Compound I-224] | 1.7 | 5.4 | 3.2 |
| C/C=C/CO/N=C(\C)c1cc(C)c(OCc2ccccc2-n2nnn(C)c2=O)cc1C [Compound I-225] | 3.4 | 72 | 21 |

| SMILES | IC50 [1] [µM] | IC50 [2] [µM] | Resistance factor RF = R-IC50/S-IC50 [2] |
| --- | --- | --- | --- |
| C/C(=N\OC/C=C\Cl)c1cc(C)c(OCc2ccccc2-n2nnn(C)c2=O)cc1C [Compound I-228] | 3.4 | 10 | 3.0 |
| CC(Cc1ccc(Cl)cc1)=NOCc1ccccc1-n1nnn(C)c1=O [Compound I-230] | 3.2 | 25 | 8 |
| CO/N=C(\C)c1ccc(OCc2ccccc2-n2nnn(C)c2=O)c(C)c1 [Compound I-233] | 0.24 | 2.7 | 12 |
| CCC/C(=N\OC)c1cc(C)c(OCc2ccccc2-n2nnn(C)c2=O)cc1C [Compound I-234] | 2.4 | 4 | 1.7 |
| CCC/C(=N\OC)c1ccc(OCc2ccccc2-n2nnn(C)c2=O)c(C)c1 [Compound I-235] | 13 | 51 | 4 |
| CCON=C(c1ccc(OCc2ccccc2-n2nnn(C)c2=O)c(C)c1)C1CC1 [Compound I-236] | 6 | 24 | 4 |
| CCON=C(CC)c1ccc(OCc2ccccc2-n2nnn(C)c2=O)c(C)c1 [Compound I-238] | 6 | 12 | 1.9 |
| Cn1nnn(-c2ccccc2COc2nn(-c3ccc(Cl)cc3)cc2Cl)c1=O [Compound I-243] | 4.1 | 15 | 3.6 |
| Cc1cn(-c2ccc(Cl)cc2)nc1OCc1ccccc1-n1nnn(C)c1=O [Compound I-244] | 0.6 | 1.3 | 2.0 |
| Cn1nnn(-c2ccccc2COc2ccn(-c3cccc(C(F)(F)F)c3)n2)c1=O [Compound I-247] | 5 | 9 | 1.9 |
| CCON=C(C)c1ccc(OCc2ccccc2-n2nnn(C)c2=O)c(C)c1 [Compound I-249] | 2.4 | 11 | 5 |
| CCCC(=NOCC)c1cc(C)c(OCc2ccccc2-n2nnn(C)c2=O)cc1C [Compound I-250] | 19 | 97 | 5 |
| CCON=C(C)c1cc(C)c(OCc2ccccc2-n2nnn(CC)c2=O)cc1C [Compound I-255] | 19 | 42 | 2.2 |
| CCC(=NOC)c1ccc(OCc2ccccc2-n2nnn(CC)c2=O)c(C)c1 [Compound I-256] | 21 | 24 | 1.1 |
| CCn1nnn(-c2ccccc2COc2cc(C)c(C(C)=NOC)cc2C)c1=O [Compound I-257] | 15 | 67 | 4.5 |
| Cc1ccc(-n2cc(C)c(OCc3ccccc3-n3nnn(C)c3=O)n2)cc1 [Compound I-260] | 2.3 | 3.3 | 1.4 |
| CCc1ccc(-n2cc(C)c(OCc3ccccc3-n3nnn(C)c3=O)n2)cc1 [Compound I-261] | 2.9 | 5 | 1.6 |
| Cc1ccc(-n2cc(C)c(OCc3ccccc3-n3nnn(C)c3=O)n2)cc1C [Compound I-262] | 1 | 1.6 | 1.6 |
| Cc1ccc(-n2cc(C)c(OCc3ccccc3-n3nnn(C)c3=O)n2)c(C)c1 [Compound I-265] | 3.8 | 4 | 1.1 |
